In ChEMBL document CHEMBL1201862, “PubChem BioAssay data set” (2004):
The source made the active and inactive calls.

Key:
[1] = molecular target: Luciferin 4-monooxygenase (Photinus pyralis, UniProt P08659); test: inhibition of purified Photinus pyralis luciferase – biochemical, luminescence, dose response (AID 1891)
[2] = Fluorescence Cell-Based Dose Response to Identify Inhibitors of Thrombin Receptor-Activating Peptide SFLLRN-Mediated P-Selectin Induction on Platelets. [Related pubchem assays: 1663 (Primary HTS), 1889 (retest at dose ), 1891 (counterscreen), 1678 (Project Summary)]; format: functional
[3] = PAR1 agonist-induced platelet activation inhibition – cell-based, fluorescence, flow cytometry, human platelets, dose response (AID 2511); format: functional
[4] = Luminescence Cell-Based Dose Confirmation HTS to Identify Inhibitors of Platelet Dense Granule Release. [Related pubchem assays: 1663 (Primary HTS), 1678 (Summary of Project)]; format: functional
Protein RecA = molecular target: T1, Protein RecA (Mycobacterium tuberculosis, UniProt P9WHJ3); test: Fluorescence Cell-Free Homogeneous Dose Retest to Identify Inhibitors of RecA-Intein Splicing Activity. [Related pubchem assays (depositor defined):AID2097, AID2223, AID489010, AID492950]; format: functional
T1 sequence (P9WHJ3 whole entry): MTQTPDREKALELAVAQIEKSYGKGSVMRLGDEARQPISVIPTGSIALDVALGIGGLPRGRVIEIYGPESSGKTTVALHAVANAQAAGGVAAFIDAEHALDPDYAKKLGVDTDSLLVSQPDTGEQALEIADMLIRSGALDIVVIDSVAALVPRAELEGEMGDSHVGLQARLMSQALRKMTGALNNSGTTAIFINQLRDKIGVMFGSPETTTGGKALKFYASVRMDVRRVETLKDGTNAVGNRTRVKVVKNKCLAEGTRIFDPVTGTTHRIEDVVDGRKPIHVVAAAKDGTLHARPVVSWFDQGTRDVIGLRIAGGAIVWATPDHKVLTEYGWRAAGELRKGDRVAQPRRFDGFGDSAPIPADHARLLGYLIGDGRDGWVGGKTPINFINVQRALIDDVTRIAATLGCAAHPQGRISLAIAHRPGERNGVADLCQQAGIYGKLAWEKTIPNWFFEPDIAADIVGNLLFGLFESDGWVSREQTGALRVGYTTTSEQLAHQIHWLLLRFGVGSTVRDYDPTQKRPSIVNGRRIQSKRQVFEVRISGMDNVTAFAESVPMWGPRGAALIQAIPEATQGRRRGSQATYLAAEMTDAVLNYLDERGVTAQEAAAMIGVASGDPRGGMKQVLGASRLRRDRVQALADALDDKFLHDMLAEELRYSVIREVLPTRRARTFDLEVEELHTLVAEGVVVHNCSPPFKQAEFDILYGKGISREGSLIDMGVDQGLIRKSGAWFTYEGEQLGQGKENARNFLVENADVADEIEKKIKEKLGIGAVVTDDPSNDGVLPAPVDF

Bcl-2-like protein 1 = Bcl-2-like protein 1 (Homo sapiens, UniProt Q07817); test: blockers of BCLXL peptide binding – biochemical, fluorescence polarization, 1536-well, selectivity assay for MCL1 inhibitor project, dose response (AID 2218)
[5] = molecular target: Induced myeloid leukemia cell differentiation protein Mcl-1 (Homo sapiens, UniProt Q07820); test: blockers of MCL1 binding to BIM peptide – biochemical, fluorescence polarization, BIM-BH3 peptide, 1536-well, dose response (AID 2217)
[6] = molecular target: T2, Replicative DNA helicase DnaB (Mycobacterium tuberculosis, UniProt P9WMR3); test: DnaB intein splicing inhibitors, dose response, biochemical, cell-free fluorescence (AID 449749); format: functional
T2 sequence (P9WMR3 whole entry): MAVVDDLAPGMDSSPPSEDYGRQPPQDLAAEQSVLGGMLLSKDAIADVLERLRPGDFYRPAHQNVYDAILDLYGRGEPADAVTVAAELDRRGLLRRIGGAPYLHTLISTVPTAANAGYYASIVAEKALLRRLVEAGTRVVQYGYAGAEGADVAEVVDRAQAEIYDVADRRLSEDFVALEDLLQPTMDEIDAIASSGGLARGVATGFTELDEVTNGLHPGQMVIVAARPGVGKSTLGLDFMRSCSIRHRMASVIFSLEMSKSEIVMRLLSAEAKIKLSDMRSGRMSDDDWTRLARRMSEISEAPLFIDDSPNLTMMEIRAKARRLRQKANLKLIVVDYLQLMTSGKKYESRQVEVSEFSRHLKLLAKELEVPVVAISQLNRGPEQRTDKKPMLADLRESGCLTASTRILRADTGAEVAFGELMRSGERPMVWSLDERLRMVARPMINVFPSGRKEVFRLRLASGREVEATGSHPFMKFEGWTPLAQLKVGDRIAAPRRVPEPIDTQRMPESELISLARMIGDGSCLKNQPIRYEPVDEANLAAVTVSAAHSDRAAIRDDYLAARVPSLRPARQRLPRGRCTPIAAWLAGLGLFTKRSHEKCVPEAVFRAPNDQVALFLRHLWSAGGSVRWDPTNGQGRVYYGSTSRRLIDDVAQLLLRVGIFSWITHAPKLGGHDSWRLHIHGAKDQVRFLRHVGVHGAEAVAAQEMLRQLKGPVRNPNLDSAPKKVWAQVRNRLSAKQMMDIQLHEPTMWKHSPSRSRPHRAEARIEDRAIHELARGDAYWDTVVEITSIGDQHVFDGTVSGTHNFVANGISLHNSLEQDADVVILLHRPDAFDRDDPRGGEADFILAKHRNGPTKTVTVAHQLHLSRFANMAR

NADPH oxidase 1 = NADPH oxidase 1 (Homo sapiens, UniProt Q9Y5S8); test: Luminescence-based cell-based dose response assay to identify inhibitors of NADPH oxidase 1 (NOX1).; format: functional
[7] = molecular target: T3, Voltage-gated N-type calcium channel alpha-1B subunit/Amyloid beta A4 precursor protein-binding family A member 1 (Homo sapiens, UniProt Q00975+Q02410); format: protein assay
[8] = molecular target: T4, RNA-binding protein pos-1 (Caenorhabditis elegans, UniProt G5EF15); test: disruptors of C. elegans POS-1 RNA interaction – biochemical, fluorescence polarization, dose response (AID 1964);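 further: purified POS-1 fused to maltose binding protein made in E. coli; potency of compounds blocking POS-1 binding to fluorescent RNA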
T4 sequence (G5EF15 whole entry): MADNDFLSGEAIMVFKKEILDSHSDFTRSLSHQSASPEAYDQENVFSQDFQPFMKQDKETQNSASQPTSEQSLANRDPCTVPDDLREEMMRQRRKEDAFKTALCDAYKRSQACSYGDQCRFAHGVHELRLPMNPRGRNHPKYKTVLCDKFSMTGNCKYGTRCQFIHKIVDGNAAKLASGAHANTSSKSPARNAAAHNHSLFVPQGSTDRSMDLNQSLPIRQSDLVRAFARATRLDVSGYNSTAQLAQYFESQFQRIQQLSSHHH

[9] = molecular target: T5, Mannose-6-phosphate isomerase (Homo sapiens, UniProt P34949); test: MPI enzyme activity inhibition – biochemical, fluorescence intensity, coupled assay, primary screen (AID 1209)
T5 sequence (P34949 whole entry): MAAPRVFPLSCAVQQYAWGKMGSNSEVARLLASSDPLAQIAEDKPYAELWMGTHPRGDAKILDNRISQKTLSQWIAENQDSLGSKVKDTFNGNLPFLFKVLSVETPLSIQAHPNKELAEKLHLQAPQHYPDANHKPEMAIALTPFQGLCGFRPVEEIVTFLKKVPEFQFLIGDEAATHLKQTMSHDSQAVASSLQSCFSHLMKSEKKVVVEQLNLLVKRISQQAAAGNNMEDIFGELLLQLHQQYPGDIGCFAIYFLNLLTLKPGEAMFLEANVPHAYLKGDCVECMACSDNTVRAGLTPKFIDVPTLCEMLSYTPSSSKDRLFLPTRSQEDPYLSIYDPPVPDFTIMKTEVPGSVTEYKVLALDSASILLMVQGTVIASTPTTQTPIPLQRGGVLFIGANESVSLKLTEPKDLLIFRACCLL

[10] = molecular target: T6, Zinc finger protein mex-5 (Caenorhabditis elegans, UniProt Q9XUB2); test: potency of MEX-5 RNA-binding blockers – biochemical, C. elegans, fluorescence polarization, dose response (AID 1960)
T6 sequence (Q9XUB2 whole entry): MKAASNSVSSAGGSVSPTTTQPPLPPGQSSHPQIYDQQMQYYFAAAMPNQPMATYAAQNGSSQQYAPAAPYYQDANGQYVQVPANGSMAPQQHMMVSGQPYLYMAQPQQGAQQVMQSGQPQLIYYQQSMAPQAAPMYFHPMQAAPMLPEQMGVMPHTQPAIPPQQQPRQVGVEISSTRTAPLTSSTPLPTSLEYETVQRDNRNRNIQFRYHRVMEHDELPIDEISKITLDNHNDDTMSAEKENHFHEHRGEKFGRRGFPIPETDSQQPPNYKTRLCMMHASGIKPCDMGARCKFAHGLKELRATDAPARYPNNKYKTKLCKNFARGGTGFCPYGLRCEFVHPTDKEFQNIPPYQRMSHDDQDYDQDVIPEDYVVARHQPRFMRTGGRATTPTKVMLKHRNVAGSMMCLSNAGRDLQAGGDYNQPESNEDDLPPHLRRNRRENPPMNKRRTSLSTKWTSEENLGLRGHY

[11] = molecular target: T3, Voltage-gated N-type calcium channel alpha-1B subunit/Amyloid beta A4 precursor protein-binding family A member 1; format: protein assay; remark: listed apart in the source
[12] = molecular target: Sphingosine 1-phosphate receptor 3 (Homo sapiens, UniProt Q99500); test: Dose response cell-based high throughput screening assay for antagonists of the Sphingosine 1-Phosphate Receptor 3 (S1P3). [Related pubchem assays: 1429, 485 ]; format: functional
[13] = molecular target: 5-hydroxytryptamine receptor 1E (Homo sapiens, UniProt P28566); test: Counterscreen assay for S1P3 antagonists: Dose response cell-based high throughput screening assay to identify antagonists of the 5-Hydroxytryptamine Receptor Subtype 1E (5HT1E). [Related pubchem assays: 1429, 485 ]; format: functional
[14] = molecular target: T7, Short transient receptor potential channel 4 (Mus musculus, UniProt Q9QUQ5); test: calcium entry via TRPC4 opening agents – cell-based, HEK293 TRPC4/mu-opioid, Fluo-4 calcium, dose response (AID 434937); format: functional
T7 sequence (Q9QUQ5 whole entry): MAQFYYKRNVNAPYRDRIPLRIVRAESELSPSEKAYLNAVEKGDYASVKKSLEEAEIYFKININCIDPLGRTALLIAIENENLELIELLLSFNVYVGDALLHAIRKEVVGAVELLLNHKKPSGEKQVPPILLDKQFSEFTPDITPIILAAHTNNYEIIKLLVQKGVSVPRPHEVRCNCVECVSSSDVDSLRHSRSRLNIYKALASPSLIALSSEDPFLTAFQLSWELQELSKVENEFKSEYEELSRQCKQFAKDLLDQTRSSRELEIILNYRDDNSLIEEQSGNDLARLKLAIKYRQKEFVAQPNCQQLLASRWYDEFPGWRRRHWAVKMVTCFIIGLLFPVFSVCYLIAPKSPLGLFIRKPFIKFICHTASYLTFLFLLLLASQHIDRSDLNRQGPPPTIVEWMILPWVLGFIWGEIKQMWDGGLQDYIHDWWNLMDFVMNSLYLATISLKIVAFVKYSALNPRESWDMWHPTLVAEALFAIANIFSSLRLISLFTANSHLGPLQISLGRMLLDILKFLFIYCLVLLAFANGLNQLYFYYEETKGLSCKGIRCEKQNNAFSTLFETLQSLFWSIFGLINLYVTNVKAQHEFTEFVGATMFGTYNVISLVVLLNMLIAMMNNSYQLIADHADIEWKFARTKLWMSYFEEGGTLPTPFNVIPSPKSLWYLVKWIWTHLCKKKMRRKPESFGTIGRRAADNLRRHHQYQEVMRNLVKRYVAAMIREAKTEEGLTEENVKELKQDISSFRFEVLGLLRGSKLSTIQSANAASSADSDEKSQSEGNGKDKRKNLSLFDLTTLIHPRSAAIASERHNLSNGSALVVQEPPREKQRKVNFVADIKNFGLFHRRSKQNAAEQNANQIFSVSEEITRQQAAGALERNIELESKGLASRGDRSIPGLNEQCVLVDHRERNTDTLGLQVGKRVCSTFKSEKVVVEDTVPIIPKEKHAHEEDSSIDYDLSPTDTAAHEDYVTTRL

T3 sequence (Q00975 whole entry, the tested form may be a part): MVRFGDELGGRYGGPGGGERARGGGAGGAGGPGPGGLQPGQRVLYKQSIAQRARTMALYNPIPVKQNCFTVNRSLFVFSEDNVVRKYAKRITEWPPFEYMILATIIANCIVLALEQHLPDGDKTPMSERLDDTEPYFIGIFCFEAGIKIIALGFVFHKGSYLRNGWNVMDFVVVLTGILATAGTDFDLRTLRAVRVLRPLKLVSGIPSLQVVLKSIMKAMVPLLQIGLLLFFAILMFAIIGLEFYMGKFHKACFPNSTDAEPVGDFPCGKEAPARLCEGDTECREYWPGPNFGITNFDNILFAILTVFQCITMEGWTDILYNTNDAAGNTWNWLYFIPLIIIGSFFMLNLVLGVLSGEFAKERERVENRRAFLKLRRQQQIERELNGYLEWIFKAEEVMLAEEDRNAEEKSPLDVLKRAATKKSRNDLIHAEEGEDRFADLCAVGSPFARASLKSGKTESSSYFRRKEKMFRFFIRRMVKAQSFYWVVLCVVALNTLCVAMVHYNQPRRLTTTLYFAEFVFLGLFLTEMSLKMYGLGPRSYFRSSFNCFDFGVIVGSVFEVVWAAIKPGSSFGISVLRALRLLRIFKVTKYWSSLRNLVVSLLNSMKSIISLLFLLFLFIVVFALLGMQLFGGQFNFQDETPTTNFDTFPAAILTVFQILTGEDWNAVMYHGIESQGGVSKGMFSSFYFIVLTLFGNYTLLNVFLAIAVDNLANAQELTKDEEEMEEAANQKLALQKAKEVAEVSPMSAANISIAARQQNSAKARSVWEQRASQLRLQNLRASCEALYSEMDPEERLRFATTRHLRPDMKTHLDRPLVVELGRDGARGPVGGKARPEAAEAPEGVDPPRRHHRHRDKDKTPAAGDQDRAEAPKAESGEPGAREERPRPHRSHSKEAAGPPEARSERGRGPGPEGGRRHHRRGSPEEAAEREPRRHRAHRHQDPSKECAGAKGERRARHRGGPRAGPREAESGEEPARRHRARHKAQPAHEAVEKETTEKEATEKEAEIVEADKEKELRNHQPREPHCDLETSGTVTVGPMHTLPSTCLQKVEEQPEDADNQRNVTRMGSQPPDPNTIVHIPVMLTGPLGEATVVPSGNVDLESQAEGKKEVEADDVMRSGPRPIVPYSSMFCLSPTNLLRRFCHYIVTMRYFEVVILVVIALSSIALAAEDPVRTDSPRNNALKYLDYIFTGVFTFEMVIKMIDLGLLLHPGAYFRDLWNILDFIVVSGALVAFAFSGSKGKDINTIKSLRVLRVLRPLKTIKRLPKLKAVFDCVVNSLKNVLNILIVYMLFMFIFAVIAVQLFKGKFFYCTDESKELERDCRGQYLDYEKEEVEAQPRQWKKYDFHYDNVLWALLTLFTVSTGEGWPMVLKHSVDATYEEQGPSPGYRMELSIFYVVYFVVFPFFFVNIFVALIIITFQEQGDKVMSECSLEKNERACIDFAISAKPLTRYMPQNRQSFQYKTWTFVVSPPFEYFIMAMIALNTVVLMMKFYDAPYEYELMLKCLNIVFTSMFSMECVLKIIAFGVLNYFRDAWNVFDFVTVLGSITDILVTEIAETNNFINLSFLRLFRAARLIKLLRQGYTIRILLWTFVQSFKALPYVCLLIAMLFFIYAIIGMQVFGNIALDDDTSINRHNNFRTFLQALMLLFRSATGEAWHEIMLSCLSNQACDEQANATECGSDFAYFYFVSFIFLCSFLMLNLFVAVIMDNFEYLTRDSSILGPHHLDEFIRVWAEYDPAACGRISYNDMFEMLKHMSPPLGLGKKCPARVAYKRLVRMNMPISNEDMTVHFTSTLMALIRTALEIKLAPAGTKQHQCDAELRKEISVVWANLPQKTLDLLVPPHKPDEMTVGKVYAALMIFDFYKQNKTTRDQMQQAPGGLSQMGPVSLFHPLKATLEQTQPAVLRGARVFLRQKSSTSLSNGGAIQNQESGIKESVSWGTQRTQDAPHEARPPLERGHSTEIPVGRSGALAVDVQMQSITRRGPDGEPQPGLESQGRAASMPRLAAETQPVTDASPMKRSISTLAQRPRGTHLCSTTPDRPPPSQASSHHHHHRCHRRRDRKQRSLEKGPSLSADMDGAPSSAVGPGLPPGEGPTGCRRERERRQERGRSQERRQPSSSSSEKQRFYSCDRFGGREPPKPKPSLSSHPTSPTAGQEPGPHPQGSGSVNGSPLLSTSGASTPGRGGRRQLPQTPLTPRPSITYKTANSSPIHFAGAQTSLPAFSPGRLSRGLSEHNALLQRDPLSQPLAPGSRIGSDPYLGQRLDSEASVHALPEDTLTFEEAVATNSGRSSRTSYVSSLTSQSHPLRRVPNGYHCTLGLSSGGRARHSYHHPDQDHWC
T3 sequence (Q02410 whole entry, the tested form may be a part): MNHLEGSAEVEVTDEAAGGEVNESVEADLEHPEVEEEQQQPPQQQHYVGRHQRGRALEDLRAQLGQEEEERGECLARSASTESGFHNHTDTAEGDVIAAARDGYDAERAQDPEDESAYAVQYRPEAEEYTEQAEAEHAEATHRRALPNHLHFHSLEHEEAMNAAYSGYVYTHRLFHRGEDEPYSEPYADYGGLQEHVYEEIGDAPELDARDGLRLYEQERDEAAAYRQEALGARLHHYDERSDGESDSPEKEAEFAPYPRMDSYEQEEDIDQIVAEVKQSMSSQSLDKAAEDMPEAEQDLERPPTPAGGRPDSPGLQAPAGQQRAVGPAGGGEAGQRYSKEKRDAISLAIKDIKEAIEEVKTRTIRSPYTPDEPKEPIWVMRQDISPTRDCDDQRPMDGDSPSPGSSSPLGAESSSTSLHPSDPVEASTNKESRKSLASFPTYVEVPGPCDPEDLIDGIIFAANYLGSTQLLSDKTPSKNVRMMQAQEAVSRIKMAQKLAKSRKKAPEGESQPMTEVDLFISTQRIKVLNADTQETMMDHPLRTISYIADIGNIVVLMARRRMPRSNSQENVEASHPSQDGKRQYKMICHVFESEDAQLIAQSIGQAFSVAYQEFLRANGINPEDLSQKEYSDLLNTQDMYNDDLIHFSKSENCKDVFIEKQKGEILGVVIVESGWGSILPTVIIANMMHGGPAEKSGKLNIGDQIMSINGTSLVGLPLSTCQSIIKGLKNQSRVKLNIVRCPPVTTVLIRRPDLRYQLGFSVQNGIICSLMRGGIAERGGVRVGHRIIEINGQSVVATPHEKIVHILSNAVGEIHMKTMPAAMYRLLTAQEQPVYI
Chain of NADPH oxidase 1 (Q9Y5S8 whole entry): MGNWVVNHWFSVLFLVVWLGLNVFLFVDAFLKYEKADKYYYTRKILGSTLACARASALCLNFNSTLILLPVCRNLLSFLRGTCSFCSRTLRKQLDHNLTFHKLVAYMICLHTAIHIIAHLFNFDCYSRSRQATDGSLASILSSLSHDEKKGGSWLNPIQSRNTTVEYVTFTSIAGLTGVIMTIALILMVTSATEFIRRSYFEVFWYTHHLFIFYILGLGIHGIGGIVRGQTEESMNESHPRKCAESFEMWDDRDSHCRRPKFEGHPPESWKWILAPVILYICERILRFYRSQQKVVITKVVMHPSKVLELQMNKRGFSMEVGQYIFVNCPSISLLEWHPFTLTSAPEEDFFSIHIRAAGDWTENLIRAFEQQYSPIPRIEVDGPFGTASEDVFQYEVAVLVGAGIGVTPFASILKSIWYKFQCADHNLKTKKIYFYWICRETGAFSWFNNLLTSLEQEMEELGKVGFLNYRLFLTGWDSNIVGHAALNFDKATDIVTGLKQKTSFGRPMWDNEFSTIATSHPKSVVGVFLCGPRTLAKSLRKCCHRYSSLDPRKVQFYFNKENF
Chain of Luciferin 4-monooxygenase (P08659 whole entry): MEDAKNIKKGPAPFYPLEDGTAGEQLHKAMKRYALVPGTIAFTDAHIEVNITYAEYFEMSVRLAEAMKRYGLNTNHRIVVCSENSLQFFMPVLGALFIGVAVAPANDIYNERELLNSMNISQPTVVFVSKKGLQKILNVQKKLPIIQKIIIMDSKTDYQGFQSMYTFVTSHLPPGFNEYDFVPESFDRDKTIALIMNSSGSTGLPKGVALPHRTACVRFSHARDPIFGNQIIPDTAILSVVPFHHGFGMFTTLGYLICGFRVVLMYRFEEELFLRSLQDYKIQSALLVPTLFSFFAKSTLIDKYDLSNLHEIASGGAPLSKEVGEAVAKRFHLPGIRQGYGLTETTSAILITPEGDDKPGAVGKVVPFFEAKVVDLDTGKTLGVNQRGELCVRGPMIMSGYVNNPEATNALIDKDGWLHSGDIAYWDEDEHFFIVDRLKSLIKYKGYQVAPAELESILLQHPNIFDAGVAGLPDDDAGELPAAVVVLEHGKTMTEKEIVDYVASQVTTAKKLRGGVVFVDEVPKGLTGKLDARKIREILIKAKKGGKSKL
Chain of Induced myeloid leukemia cell differentiation protein Mcl-1 (Q07820 whole entry): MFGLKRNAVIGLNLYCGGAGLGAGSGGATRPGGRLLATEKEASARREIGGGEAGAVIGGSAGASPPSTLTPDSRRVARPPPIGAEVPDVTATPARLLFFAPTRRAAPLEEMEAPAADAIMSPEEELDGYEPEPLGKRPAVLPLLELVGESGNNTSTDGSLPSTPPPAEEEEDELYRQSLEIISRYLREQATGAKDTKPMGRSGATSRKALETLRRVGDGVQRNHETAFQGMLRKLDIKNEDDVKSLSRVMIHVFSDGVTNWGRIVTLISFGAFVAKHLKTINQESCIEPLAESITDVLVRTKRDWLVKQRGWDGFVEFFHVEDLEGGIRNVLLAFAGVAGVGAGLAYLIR
Chain of Bcl-2-like protein 1 (Q07817 whole entry): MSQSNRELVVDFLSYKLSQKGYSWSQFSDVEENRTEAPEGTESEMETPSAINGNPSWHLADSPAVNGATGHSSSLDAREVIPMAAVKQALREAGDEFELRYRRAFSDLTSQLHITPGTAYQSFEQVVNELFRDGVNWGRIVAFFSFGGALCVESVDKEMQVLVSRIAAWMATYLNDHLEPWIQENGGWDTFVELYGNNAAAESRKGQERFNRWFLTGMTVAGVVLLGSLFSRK

In the case of `O=C(Nc1cccc(NC(=O)c2ccccc2Cl)c1)c1ccco1`, the EC50 [1] is reported as > 112 µM (not active), the EC50 [2] is reported as < 1 µM (active) and the EC50 [3] is reported as < 0.3 µM (active). The EC50 [4] was 5.86 µM (active).

In the case of `CC(=O)OCCCNc1cc(SCc2ccco2)c2nonc2c1[N+](=O)[O-]`, the EC50 (Protein RecA) is reported as 3.49 µM (active), the IC50 (Bcl-2-like protein 1) is reported as > 109 µM (not active) and the IC50 [5] is reported as > 36.3 µM (not active). The AC50 [6] was 4.6 µM (active).

With `CC(=O)N1c2ccccc2Sc2ccccc21` the IC50 (NADPH oxidase 1) was 4.57 µM (active).

In the case of `NC1=CC(=O)c2cccc3cccc1c23`, the IC50 [7] is reported as > 50 µM (inactive), the EC50 [8] is reported as 7.46 µM (inconclusive) and the IC50 [9] is reported as 16.7 µM (active). The EC50 [10] was 1.98 µM (inconclusive) and the IC50 [11] was 12.7 µM (active).

For `O=C(CCCN1CCC2(CC1)C(=O)NCN2c1ccccc1)c1ccc(F)cc1` [SPIPERONE], the IC50 [12] was > 50 µM (not active), the IC50 [13] was > 50 µM (not active) and the EC50 [14] was 6.68 µM (active).
